Experimental data from PMC10268255 (Proceedings of the National Academy of Sciences of the …, 2023).

Tests used:
[1] = molecular target: αVβ8 ectodomain (Homo sapiens, UniProt P06756+P26012); assay: Fluorescence polarization; format: binding; conditions: ratio of FP KDs, αVβ8 vs αVβ6
[2] = molecular target: αVβ6 ectodomain (Homo sapiens, UniProt P06756+P18564); assay: Fluorescence polarization; format: binding; conditions: FP competition
[3] = molecular target: integrin αVβ6 ectodomain (UniProt P06756); assay: fluorescence polarisation
[4] = molecular target: integrin αVβ8 ectodomain (UniProt P06756 31-992; P26012 43-684); assay: fluorescence polarisation
[5] = molecular target: integrin αVβ6 ectodomain (UniProt P06756 31-992; P18564 22-709); assay: fluorescence polarisation

## Ac-GTSTYTSGDQKTIKSTRKKNSGK-NH2 [23-mer]
[1]
  Fold lower affinity of αVβ8 compared to αVβ6: 5,500 fold
[2]
  Fold higher affinity for αVβ6 than the TGF-β2 9-mer: 20 fold

## Ac-YTSGDQKTIKSTR-NH2 [13-mer]
[1]
  Fold lower affinity of αVβ8 compared to αVβ6: 8,100 fold

## human proTGF-β2 C24S, N140R, D5G (shaved) (natural protein)
[3]
  fold higher affinity than the TGF-β2 9-mer: 170 fold

## Ac-YTSGDQKTIKSTR-NH2 [TGF-β2 13-mer peptide Y259TSGDQKTIKSTR271]
[4]
  Kd: 11.4 mM

## Ac-YTSGDQATIKSTR-NH2 (peptide, UniProt P61812 259-271, looked up) [TGF-β2 13-mer peptide K265A]
[5]
  fold increase in affinity over the wild-type 13-mer: 6.3 fold
